Some test systems named below: 786-0; A549; EKVX; HCT-15; HL-60; HOP-92; LOX IMVI; MDA-MB-435; MOLT-4; NCI-H226; NCI-H23; NCI-H522; SF-295; SK-MEL-2; SK-OV-3; SN12C; SNB-19; SR; SW-620; TK-10.
Assay in all cases: DTP human tumour cell line panel, 48 h

As a reminder, the GI50 is the concentration giving 50% growth inhibition.

Structures are written as SMILES.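 Interpolation was linear, between the two tested concentrations surrounding the appropriate level; five concentrations were tested over 48 hours in 96-well plates. At the GI50, growth is halved.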 The source made the active and inactive calls. Rule as the data show it: active = GI50 up to about 1.1 µM and inactive = higher.

As to `CC1=C(C(=O)NCC(C)O)CC(C(=O)NCC(C)O)=C(C)N1` (stereo not given), the GI50 in the assay on 786-0 was > 100 µM (inactive); with A549 it was > 100 µM (inactive); with EKVX it was > 100 µM (inactive); in the assay with HCT-15, more than 100 µM; with HL-60, > 100 µM (inactive); with HOP-92 it was > 100 µM (inactive). The GI50 was > 100 µM (inactive) with LOX IMVI; > 100 µM (inactive) with MDA-MB-435; > 100 µM (inactive) in the assay on MOLT-4; 89.7 µM (inactive) with NCI-H226; > 100 µM (inactive) with NCI-H23; > 100 µM (inactive) with NCI-H522. The GI50 in the assay with SF-295, in the assay on SK-MEL-2, with SK-OV-3, in the assay on SN12C, in the assay on SNB-19 and in the assay with SR was > 100 µM (inactive) each time. Moreover, the GI50 with SW-620 and in the assay on TK-10 was > 100 µM (inactive) throughout.

Regarding `COC(=O)/C=C\C(C#N)(C#N)/N=C/c1cc(Br)cs1`, the GI50 was 1.94 µM (inactive) with 786-0; 18 µM (inactive) in the assay with A549; 7.45 µM (inactive) in the assay with EKVX; 2.71 µM with HCT-15; 0.0465 µM (active) in the assay with HL-60; 2.19 µM (inactive) with HOP-92. Also, the GI50 was 2.06 µM (inactive) in the assay with LOX IMVI; 2.38 µM (inactive) in the assay with MDA-MB-435; 1.89 µM (inactive) in the assay with MOLT-4; 19.8 µM (inactive) in the assay with NCI-H226; 5.33 µM (inactive) in the assay with NCI-H23; 1.5 µM (inactive) in the assay with NCI-H522. For the same molecule, the GI50 in the assay with SF-295 was 17.9 µM (inactive); with SK-MEL-2, 10.6 µM (inactive); with SK-OV-3, 19.5 µM (inactive); with SN12C it was 3.18 µM (inactive); in the assay with SNB-19, 18.5 µM (inactive); with SR it was 2.32 µM (inactive). Besides, the GI50 in the assay on SW-620 was 1.15 µM (inactive); in the assay on TK-10, 3.11 µM (inactive).

As to `C[C@@]12C(=O)OC(=O)[C@]1(C)[C@H]1CC[C@@H]2O1` [CANTHARIDIN], the GI50 in the assay with 786-0 was 1.74 µM (inactive); with A549, 0.918 µM (active); in the assay on EKVX it was 0.45 µM (active); in the assay on HCT-15, 4.06 µM; in the assay on HL-60, 1.63 µM (inactive); in the assay on HOP-92, 0.61 µM (active). For the same molecule, the GI50 is 2.23 µM (inactive) in the assay on LOX IMVI; 1.89 µM (inactive) with MDA-MB-435; 9.79 µM (inactive) with MOLT-4; 1.06 µM (active) in the assay on NCI-H226; 5.07 µM (inactive) in the assay with NCI-H23; 0.935 µM (active) in the assay with NCI-H522. The GI50 in the assay with SF-295 is 1.37 µM (inactive); in the assay on SK-MEL-2 it was 1.45 µM (inactive); in the assay with SK-OV-3 it was 2.17 µM (inactive); in the assay on SN12C it was 2.01 µM (inactive); with SNB-19, 1.1 µM (active); with SR, 2.61 µM (inactive). Further, the GI50 with SW-620 was 3.84 µM (inactive); in the assay on TK-10, 0.313 µM (active).

As for `NC(=O)NO` [HYDROXYUREA], the GI50 with 786-0 was 303 µM (inactive); in the assay on A549 it was 514 µM (inactive); with EKVX, 1790 µM (inactive); with HCT-15, 871 µM; in the assay on HL-60, 18.4 µM (inactive); in the assay on HOP-92, 895 µM (inactive). Moreover, the GI50 in the assay with LOX IMVI was 700 µM (inactive); in the assay with MDA-MB-435, 2000 µM (inactive); with MOLT-4, 222 µM (inactive); in the assay with NCI-H226 it was 773 µM (inactive); in the assay with NCI-H23, 710 µM (inactive); in the assay on NCI-H522 it was 729 µM (inactive). The GI50 in the assay with SF-295 was 313 µM (inactive); with SK-MEL-2 it was 2000 µM (inactive); in the assay on SK-OV-3 it was 1680 µM (inactive); in the assay on SN12C, 738 µM (inactive); with SNB-19 it was 1580 µM (inactive); in the assay with SR, 217 µM (inactive). Besides, the GI50 in the assay with SW-620 was 1090 µM (inactive); with TK-10, 1980 µM (inactive).

The record behind these values is ChEMBL document CHEMBL1201862, “PubChem BioAssay data set” (2004).
